Assay results published in the supplement of paper PMC9663587.

Tests used:
Assay in all cases: area over the GR curve, 72 h; higher = more effect;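 further: Dye Drop or Deep Dye Drop imaging of viable cells in 384-well plates (Hoechst nuclei, LIVE/DEAD dye), nine half-log doses, GR normalized to DMSO controls and time-zero plates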
[1] = tested on: SUM1315
[2] = tested on: EVSAT
[3] = tested on: HCC1937
[4] = tested on: SKBR3
[5] = tested on: SUM44PE
[6] = tested on: SUM159
[7] = tested on: MDAMB436
[8] = tested on: CAL51
[9] = tested on: UACC893
[10] = tested on: CAL120
[11] = tested on: ZR751
[12] = tested on: BT549

Row | Compound | area over the GR curve [1] [GR] | area over the GR curve [2] [GR] | area over the GR curve [3] [GR] | area over the GR curve [4] [GR] | area over the GR curve [5] [GR] | area over the GR curve [6] [GR] | area over the GR curve [7] [GR] | area over the GR curve [8] [GR] | area over the GR curve [9] [GR] | area over the GR curve [10] [GR] | area over the GR curve [11] [GR] | area over the GR curve [12] [GR] | area over the GR curve ([1]; main component drawn) [GR] | area over the GR curve ([3]; main component drawn) [GR] | area over the GR curve ([4]; main component drawn) [GR] | area over the GR curve ([6]; main component drawn) [GR] | area over the GR curve ([7]; main component drawn) [GR] | area over the GR curve ([8]; main component drawn) [GR] | area over the GR curve ([10]; main component drawn) [GR] | area over the GR curve ([12]; main component drawn) [GR]
1 | C[C@@H]1COCCN1c1cc(C2([S@](C)(=N)=O)CC2)nc(-c2cc[nH]c3nccc2-3)n1 [AZD6738] (max 10 µM) | 0.0543 | -0.0225 | -0.0947 | 0.335 | 0.365 | 0.0107 | 0.0381 | 0.103 | 0.0149 | -0.169 | 0.03 | 0.0821 |  |  |  |  |  |  |  | 
2 | NC(=O)Nc1cc(-c2cccc(F)c2)sc1C(=O)N[C@H]1CCCNC1 [AZD7762] (max 10 µM) | 0.68 | 0.253 | 0.447 | 0.88 | 0.738 | 0.277 | 0.65 | 0.714 | 0.431 | 0.492 | 0.201 | 0.601 |  |  |  |  |  |  |  | 
3 | Cc1nc(NC(=O)N2CCC[C@H]2C(N)=O)sc1-c1ccnc(C(C)(C)C(F)(F)F)c1 [Alpelisib/BYL719] (max 10 µM) | 0.116 | 0.0161 | 0.0501 | 0.379 | 0.33 | 0.056 | 0.0552 | 0.149 | 0.492 | 0.0922 | 0.0495 | 0.0322 |  |  |  |  |  |  |  | 
4 | CN(C)C/C=C/C(=O)Nc1ccc(O[C@@H]2CCC[C@@H](Nc3ncc(Cl)c(-c4c[nH]c5ccccc45)n3)C2)cc1 [BSJ-01-175] (max 10 µM) | 0.509 | 0.637 | 0.462 | 1.04 | 1.27 | 0.646 | 0.82 | 0.434 | 0.927 | 0.667 | 0.189 | 0.433 |  |  |  |  |  |  |  | 
5 | CC(=O)c1c(C)c2cnc(Nc3ccc(N4CCN(CCOCCOCCOCCNC(=O)COc5cccc6c5C(=O)N(C5CCC(=O)NC5=O)C6=O)CC4)cn3)nc2n(C2CCCC2)c1=O (configuration not stated) [BSJ-03-123] (max 10 µM) | 0.312 | 0.194 | 0.0357 | 0.338 | 0.284 | 0.265 | 0.0446 | 0.187 | 0.34 | 0.16 | 0.267 | 0.116 |  |  |  |  |  |  |  | 
6 | CC(C)Nc1cc(-c2c[nH]c(C(=O)N[C@H](CO)c3cccc(Cl)c3)c2)c(Cl)cn1 [BVD523] (max 10 µM) | 0.0786 | 0.0496 | 0.119 | 0.124 | 0.218 | 0.254 | 0.0948 | 0.0561 | 0.267 | 0.108 | 0.122 | 0.109 |  |  |  |  |  |  |  | 
7 | Cc1c(N)nc([C@H](CC(N)=O)NC[C@H](N)C(N)=O)nc1C(=O)N[C@H](C(=O)N[C@H](C)[C@@H](O)[C@H](C)C(=O)N[C@H](C(=O)NCCc1nc(-c2nc(C(=O)NCCC[S+](C)C)cs2)cs1)[C@@H](C)O)[C@@H](OC1OC(CO)C(O)C(O)C1OC1OC(CO)C(O)C(OC(N)=O)C1O)c1cnc[nH]1 (some centres not stated) [Bleomycin] (max 10 µM) |  |  |  |  |  |  |  |  |  |  |  |  | 0.41 | 0.416 | 0.259 | 0.463 | 0.309 | 0.485 | 0.232 | 0.467
8 | Nc1cc(C(F)(F)F)c(-c2cc(N3CCOCC3)nc(N3CCOCC3)n2)cn1 [Buparlisib/NVP-BKM120] (max 10 µM) | 0.438 | 0.322 | 0.263 | 0.585 | 0.436 | 0.184 | 0.292 | 0.328 | 0.587 | 0.339 | 0.256 | 0.248 |  |  |  |  |  |  |  | 
9 | COc1cc2nccc(Oc3ccc(NC(=O)C4(C(=O)Nc5ccc(F)cc5)CC4)cc3)c2cc1OC [Cabozantinib] (max 10 µM) | 0.105 | 0.0366 | 0.0053 | -0.0595 | 0.0196 | 0.059 | 0.0531 | 0.0598 | -0.159 | 0.0847 | -0.0852 | 0.0035 |  |  |  |  |  |  |  | 
10 | COc1cc2c(Oc3ccc4[nH]c(C)cc4c3F)ncnc2cc1OCCCN1CCCC1 [Cediranib/AZD2171] (max 10 µM) | 0.243 | 0.064 | 0.044 | 0.063 | -0.0271 | 0.0309 | 0.161 | 0.171 | 0.122 | 0.299 | 0.019 | 0.15 |  |  |  |  |  |  |  | 
11 | Cc1cc(Nc2ncc(Cl)c(Nc3ccccc3S(=O)(=O)C(C)C)n2)c(OC(C)C)cc1C1CCNCC1 [Ceritinib/LDK378] (max 10 µM) | 0.413 | 0.0642 | 0.133 | 0.301 | 0.131 | 0.213 | 0.415 | 0.417 | -0.0026 | 0.337 | 0.16 | 0.141 |  |  |  |  |  |  |  | 
12 | N.N.[Cl][Pt][Cl] [Cisplatin] (max 10 µM) | 0.296 |  | 0.327 | 0.0978 |  | 0.137 | 0.36 | 0.214 |  | 0.182 |  | 0.283 |  |  |  |  |  |  |  | 
13 | Cc1nc(Nc2ncc(C(=O)Nc3c(C)cccc3Cl)s2)cc(N2CCN(CCO)CC2)n1 [Dasatinib] (max 10 µM) | 0.74 | 0.379 | 0.442 | -0.0183 | 0.128 | 0.0885 | 0.102 | 0.516 | -0.149 | 0.519 | 0.687 | 0.237 |  |  |  |  |  |  |  | 
14 | COc1cccc2c1C(=O)c1c(O)c3c(c(O)c1C2=O)C[C@@](O)(C(=O)CO)C[C@@H]3O[C@H]1C[C@H](N)[C@H](O)[C@H](C)O1 [Doxorubicin] (max 3.162 µM) | 0.513 | 0.642 | 0.579 | 0.942 | 0.629 | 0.624 | 0.706 | 0.795 | 0.611 | 0.697 | 0.497 | 0.76 |  |  |  |  |  |  |  | 
15 | CO[C@H]1C[C@@H]2CC[C@@H](C)[C@@](O)(O2)C(=O)C(=O)N2CCCC[C@H]2C(=O)O[C@H]([C@H](C)C[C@@H]2CC[C@@H](OCCO)[C@H](OC)C2)CC(=O)[C@H](C)/C=C(\C)[C@@H](O)[C@@H](OC)C(=O)[C@H](C)C[C@H](C)/C=C/C=C/C=C/1C [Everolimus] (max 10 µM) | 0.454 | 0.551 | 0.335 | 0.794 | 0.734 | 0.108 | 0.314 | 0.432 | 0.714 | 0.416 | 0.669 | 0.439 |  |  |  |  |  |  |  | 
16 | CCC(=O)Nc1ccc(C(=O)Nc2ccc(Nc3ncc4c(n3)N(C)c3ccc(C)cc3C(=O)N4C)cc2)cc1 [FMF-03-145-1] | 0.539 | 1 | 0.464 | 0.464 | 1.15 | 0.476 | 0.465 | 0.394 | 0.869 | 0.34 | 0.391 | 1.02 |  |  |  |  |  |  |  | 
17 | CC[C@@]1(O)C(=O)OCc2c1cc1n(c2=O)Cc2cc3c(CN(C)C)c(O)ccc3nc2-1 [Topotecan] (max 10 µM) | 0.769 |  | 0.837 | 0.794 |  | 0.864 | 0.877 | 0.856 |  | 0.913 |  | 0.851 |  |  |  |  |  |  |  | 
